Assay results reported in patent US12383537B2, “(3S)-and (3R)-6,7-bis(hydroxymethyl)-1H,3H-pyrrolo[1,2-c]thiazoles as P53 activators” (UNIVERSIDADE DE COIMBRA, priority 2018, dated 2025).

Key:
[1] = system: HCT116 p53+/+; experiment: sulforhodamine B (SRB) growth inhibition assay; format: cell-based, human; settings: for IC50: HCT116 p53+/+, 48 hours incubation, SRB assay; for p53-dependence of anti-proliferative effect: comparison of IC50 in HCT116 p53+/+ and HCT116 p53−/−
Procedure: (§1) Cancer cells were plated at 5.0×10^3 cells/well in 96-well plates and incubated for 24 hours. Cells were then exposed to serial dilutions of MANIO, CP-31398 or PRIMA-1MET (from 0.3 to 80 μM). The effect of the compounds was analyzed following 48 hours incubation, using the sulforhodamine B (SRB) assay. The solvent DMSO corresponding to the maximum concentration used in these assays (0.025%) was included as control. Results are the mean±S.E.M. of 3-5 independent experiments.
as §1, with “plated” for “plated at 5.0×10^3 cells/well”, “compound” for “MANIO, CP-31398 or PRIMA-1MET”, “compound” for “compounds”

[2] = system: HCT116 p53−/−; experiment: sulforhodamine B (SRB) growth inhibition assay; format: cell-based, human
Procedure: as §1
as §1, with “plated” for “plated at 5.0×10^3 cells/well”, “compound” for “MANIO, CP-31398 or PRIMA-1MET”, “compound” for “compounds”

[3] = system: HT-29 (mutp53 R273H); experiment: sulforhodamine B (SRB) growth inhibition assay; format: cell-based; settings: Homo sapiens, HT-29, 48 hours incubation
Procedure: as §1, with “plated” for “plated at 5.0×10^3 cells/well”, “compound” for “MANIO, CP-31398 or PRIMA-1MET”, “compound” for “compounds”

[4] = system: Huh-7 (mutp53 Y220C); experiment: sulforhodamine B (SRB) growth inhibition assay; format: cell-based; settings: Homo sapiens, Huh-7, 48 hours incubation
Procedure: as §1, with “plated” for “plated at 5.0×10^3 cells/well”, “compound” for “MANIO, CP-31398 or PRIMA-1MET”, “compound” for “compounds”

[5] = system: HepG2 (wtp53); experiment: sulforhodamine B (SRB) growth inhibition assay; format: cell-based; settings: Homo sapiens, HepG2, 48 hours incubation
Procedure: as §1, with “plated” for “plated at 5.0×10^3 cells/well”, “compound” for “MANIO, CP-31398 or PRIMA-1MET”, “compound” for “compounds”

[6] = system: MDA-MB-468 (mut p53 R273H); experiment: sulforhodamine B (SRB) growth inhibition assay; format: cell-based; settings: Homo sapiens, MDA-MB-468, 48 hours incubation
Procedure: as §1, with “plated” for “plated at 5.0×10^3 cells/well”, “compound” for “MANIO, CP-31398 or PRIMA-1MET”, “compound” for “compounds”

[7] = system: H1299 (p53-null); experiment: sulforhodamine B (SRB) growth inhibition assay; format: cell-based; settings: Homo sapiens, NCI-H1299, H1299, 48 hours incubation
Procedure: as §1, with “plated” for “plated at 5.0×10^3 cells/well”, “compound” for “MANIO, CP-31398 or PRIMA-1MET”, “compound” for “compounds”

[8] = system: SW837 (mutp53 R248W); experiment: sulforhodamine B (SRB) growth inhibition assay; format: cell-based; settings: Homo sapiens, SW837, 48 hours incubation
Procedure: as §1, with “plated” for “plated at 5.0×10^3 cells/well”, “compound” for “MANIO, CP-31398 or PRIMA-1MET”, “compound” for “compounds”

[9] = system: H460 (wtp53); experiment: sulforhodamine B (SRB) growth inhibition assay; format: cell-based; settings: Homo sapiens, NCI-H460, H460, 48 hours incubation
Procedure: as §1, with “plated” for “plated at 5.0×10^3 cells/well”, “compound” for “MANIO, CP-31398 or PRIMA-1MET”, “compound” for “compounds”

[10] = system: MCF7 breast cancer cell lines; settings: cited from earlier work
[11] = system: skin cancer cell lines (A375, SCC4925, A375C5 cells); experiment: anti-proliferative effect in skin cancer cell lines; format: cell-based; settings: range over A375, SCC4925, A375C5 cells
[12] = system: p53-null cancer cells (colon HCT116 p53−/−, breast H1299 and HCC1937 cells); experiment: growth inhibition (SRB) in panel of p53-null cancer cell lines; format: cell-based; settings: Homo sapiens, range over HCT116 p53−/−, 48 hours, read-out: IC50 (concentration of compound that causes 50% growth inhibition)
Procedure: (§2) FIG. 2 illustrates the growth inhibitory effect of MANIO in a panel of human cancer cell lines (HCT116 p53+/+, MCF7, H460, MDA-MB-468, HT-29, SW837, Huh-7, HCT116 p53−/−, H1299, HCC1937). IC50 values were determined by the sulforhodamine B assay after 48 hours treatment with MANIO. Data are mean±SEM (n=4-5).
(§3) The compound (3S)-6,7-bis(hydroxymethyl)-1H,3H-pyrrolo[1,2-c]thiazole, MANIO, inhibited the growth of tumor cells expressing wild-type and mutant p53 forms, with much lower anti-proliferative effect on p53-null cancer cells: The activity of the compound (FIG. 1, with R^1═H, R^2=Ph and R^3=Me) was tested in an array of cancer cell lines with different p53 status.

[13] = system: p53 in HCT116 p53+/+ cells; experiment: Western blot and RT-qPCR of p53 and p53 target genes; format: cell-based, human
Procedure: FIG. 6 illustrates the MANIO effect on protein levels of p53 (A), the mRNA (B) and protein (C) expression levels of p53 target genes and PARP cleavage, in HCT116 p53+/+ and HCT116 p53−/− cells. (B) mRNA levels of p53 target genes in HCT116 cells (MDM2, CDKN1A, GADD45A, BAX, TNFRSF10B, PUMA, NOXA), after 48 hours treatment with MANIO, or DMSO, determined by RT-qPCR. Fold of induction is relative to DMSO. […] Immunoblots represent one of three independent experiments. GAPDH was used as a loading control.

[14] = system: HCT116 cells; experiment: apoptosis by flow cytometry (FITC-Annexin V and PI); format: cell-based, human; settings: 1 μM and 2.5 μM, 48 hours or 72 hours
Procedure: (§4) FIG. 5 illustrates the effect of 1 μM and 2.5 μM MANIO on cell cycle progression (A) and apoptosis (B) in HCT116 p53+/+ and HCT116 p53−/− cells. (A) Cell cycle phases were analysed by flow cytometry using propidium iodide (PI) and quantified using the FlowJo software, after 48 hours MANIO treatment. […] (B) Apoptosis was analysed by flow cytometry using FITC-Annexin V and PI, after 48 hours or 72 hours MANIO treatment.

[15] = system: mutant p53 forms ectopically expressed in p53-null H1299 cells; experiment: growth inhibition (SRB) in mutant p53-transfected H1299 cells; format: cell-based, human; settings: R282W, R248W, R280K, R273H, R273C, G245D, R175H, R248Q; 48 hours; versus empty vector
Procedure: FIG. 7 illustrates the growth inhibitory effect of MANIO in mutant p53-transfected H1299 cells. H1299 cells were transfected with pcDNA3 plasmid expressing different p53 mutants (R282W, R248W, R280K, R273H, R273C, G245D, R175H, R248Q, Y220C, G245S), or with the empty pcDNA3 plasmid, using ScreenFect®A. The growth inhibitory effect was evaluated by sulforhodamine B assay after 48 hours treatment with MANIO.

[16] = system: HCT116 p53+/+ cells; experiment: Comet assay (genotoxicity); format: cell-based, human; settings: MANIO 1 and 2.5 μM; etoposide 50 μM
Source text: Scale bar=20 μm; Magnification=200×.
For that purpose, the Comet assay was used, which measures the ability of genotoxic agents to induce DNA strand breaks in eukaryotic cells.

[17] = system: HCT116 p53+/+ and HCT116 p53−/− cells; experiment: colony formation assay; format: cell-based, human; settings: 14 days of treatment
Source text: FIG. 4 illustrates the effect of MANIO on HCT116 p53+/+ (A) and HCT116 p53−/− (B) cell colony formation after 14 days of treatment.
MANIO had p53-dependent anti-proliferative effect in colon carcinoma cells: The activity of the compound as wild-type p53 activator was studied in colon carcinoma cells with (HCT116 p53+/+) and without (HCT116 p53−/−) p53 (FIG. 3; Table 1). The IC50 value of MANIO in HCT116 p53+/+ cells was about […] lower than that obtained in HCT116 p53−/− cells, indicating a p53-dependent anti-proliferative effect.

[18] = system: HCT116 p53+/+ cells; experiment: wound healing assay (cell migration); format: cell-based, human; settings: 0.2 and 0.375 μM
Procedure: FIG. 9 illustrates the prevention of HCT116p53+/+ cell migration by MANIO. Confluent cells were treated with 0.20 and 0.375 μM MANIO or DMSO, and observed at different time-points in the wound healing assay (scale bar=50 μm and magnification=100×).
MANIO prevented cell migration of human colon cancer cells: The effect of MANIO on the migration ability of HCT116 p53+/+ cells was also studied.

[19] = system: wild-type p53-expressing cancer cells (colon HCT116 p53+/+, breast MCF7, and lung H460 cells); experiment: growth inhibition (SRB) in panel of wild-type p53 cancer cell lines; format: cell-based; settings: Homo sapiens, range over HCT116 p53+/+, 48 hours, read-out: IC50 (concentration of compound that causes 50% growth inhibition)
Procedure: as §2, §3

[20] = system: HCT116 p53+/+ tumors; experiment: in vivo xenograft mouse model; set-up: species or system Swiss nude mice; settings: versus vehicle
Procedure: FIG. 10 illustrates the in vivo antitumor activity of MANIO. (A) Swiss nude mice were implanted subcutaneous with xenografts of 1.5×10^6 HCT116 p53+/+ cells. The treatment was initiated when palpable tumors were established (˜100 mm3) and consisted in 4 intraperitoneal injections (2 times per week) of vehicle (control) or 100 mg/kg of MANIO (n=5 for each group). […] (B) The tumor weight after MANIO or vehicle (control) treatment was measured; data are mean±SEM (*p<0.05; unpaired Student's t-test). […] This description is of course not in any way restricted to the forms of implementation presented herein and any person with an average knowledge of the area can provide many possibilities for modification thereof without departing from the general idea as defined by the claims. The preferred forms of implementation described above can obviously be combined with each other. The following claims further define the preferred forms of implementation.

[21] = system: mutant p53-expressing cancer cells (breast MDA-MB-468, rectum SW837, colon HT29, and hepatocarcinoma Huh-7 cells); experiment: growth inhibition (SRB) in panel of mutant p53 cancer cell lines; format: cell-based; settings: Homo sapiens, range over MDA-MB-468, SW837, HT29, Huh-7, 48 hours, read-out: IC50 (concentration of compound that causes 50% growth inhibition)
Procedure: as §2, §3

[22] = system: HCT116 cells; experiment: cell cycle analysis by flow cytometry (propidium iodide); format: cell-based, human; settings: 1 μM and 2.5 μM, 48 hours
Procedure: as §4

[23] = Homo sapiens, HCT-116, 48 hours incubation

Compound: Cc1c(CO)c(CO)c2n1[C@@H](c1ccccc1)SC2 [(3R)-6,7-Bis (hydroxymethyl)-5-methyl-3-phenyl-1H,3H-pyrrolo[1,2-c]thiazole]
- IC50 ([1]; Homo sapiens, HCT-116): 5.11 ± 0.42 µM
- p53-dependence of anti-proliferative effect [1]: relevant p53-dependent anti-proliferative activity
- IC50 [2, 23]: 51.8 ± 2.73 µM
- IC50 [3]: 5.88 ± 1.28 µM
- IC50 [4]: 6.43 ± 0.32 µM
- IC50 [5]: 50.3 ± 1.63 µM
- IC50 [6]: 0.91 ± 0.0095 µM
- IC50 [7]: 25.5 ± 2.38 µM
- IC50 [8]: 7.35 ± 0.89 µM
- IC50 [9]: 1.8 ± 0.089 µM
- anti-proliferative activity [10]: potent anti-proliferative activity
- IC50 [11]: 25 to 35 µM

Compound: COc1ccc(/C=C/c2nc(NCCCN(C)C)c3ccccc3n2)cc1 [CP-31398, reference compound]
- IC50 [1]: 3.4 ± 0.1 µM
- p53-dependence of anti-proliferative effect [1]: lower p53-dependence than the compound
- IC50 ([2]; 48 hours incubation): 7.3 ± 0.6 µM

Compound: Cc1c(CO)c(CO)c2n1[C@H](c1ccccc1)SC2 [MANIO, (3S)-6,7-Bis(hydroxymethyl)-5-methyl-3-phenyl-1H,3H-pyrrolo[1,2-c]thiazole]
- IC50 [12]: 28.5 to 48.2 µM
- mRNA and proteins encoded by p53 target genes ([13]; 1 μM): increased
- p53 protein levels ([13]; 1 μM, 24, 48 and 72 hours): increased the p53 protein levels
- apoptosis [14]: apoptotic cell death
- IC50 in HCT116 p53+/+ cells lower than in HCT116 p53−/− cells ([1]; HCT116 p53+/+ versus HCT116 p53−/−): about 50 fold
- IC50 ([1]; Homo sapiens, HCT-116): 0.96 ± 0.04 µM
- IC50 [2, 23]: 48.2 ± 1.97 µM
- growth inhibition of cells transfected with p53 mutants [15]: significant growth inhibition
- percentage of tail DNA (DNA damage) [16]: did not significantly increase the percentage of tail DNA
- colony-forming ability [17]: reduce the colony-forming ability of HCT116 in a p53-dependent manner
- wound closure [18]: significantly reduced the wound closure
- IC50 [19]: 0.2 to 0.96 µM
- anti-proliferative activity [10]: potent anti-proliferative activity
- mice weight during treatment ([20]; 100 mg/kg intraperitoneal, 2 times per week): no significant differences between control and MANIO-treated mice weight
- growth of the HCT116 p53+/+ tumors ([20]; four intraperitoneal administrations of 100 mg/kg): significantly inhibited
- IC50 [21]: 0.2 to 3.2 µM
- IC50 [11]: 25 to 35 µM
- cell cycle progression [22]: induction of a G2/M-phase cell arrest

Compound: COCC1(CO)C(=O)C2CCN1CC2 (stereo not drawn) [PRIMA-1^MET, reference compound]
- IC50 [1]: 19.9 ± 4 µM
- p53-dependence of anti-proliferative effect [1]: lower p53-dependence than the compound
- IC50 ([2]; 48 hours incubation): 13.1 ± 2 µM
